Laboratory results taken from patent US20170080049A1, “MEDICINE AGAINST GROWTH FAILURE INDUCED BY ADMINISTRATION OF STEROID” (DAIICHI SANKYO COMPANY, LIMITED, priority 2014, published 2017).
Positions of bridges follow the written chain, without caps; N, C: chain ends. Residues, ends and D or L forms follow the SMILES beside them. No end group written: not given here.

Columns and labels:
Type in all cases: in vivo
[1] = test system: dexamethasone-induced rat growth failure model; test: Combined administration study of human-type CNP-53 or various CNP derivatives in dexamethasone-induced rat growth failure model (Example 3); settings: for plasma cholesterol concentration and thymus weight vs single administration group of dexamethasone (in words): combined with dexamethasone, 28 days; for Plasma cholesterol concentration / thymus body weight ratio / thymus weight at dissection: dexamethasone 0.67 mg/mL pump alone or combined with 15 mg/mL pump of the CNP peptide, continuous s.c. 28 days, 5-week-old male Wistar rat, n=5
Description: Osmotic pumps (MINI-OSMOTIC PUMP Model 2004, available from DURECT CORPORATION, flow rate: 0.25 μL/hr, for 28 days) were charged with 0.67 mg/mL solution of dexamethasone (dexamethasone injection “KS”, available from Kyoritsuseiyaku Corporation) and one osmotic pump was embedded in the hypoderm of the back of each 5-week-old male Crlj:WI (Wistar) rat (5 animals/group, Groups 2 to 6, a total of 25 animals). At the same time, one osmotic pump (the same as above) charged with a 15 mg/mL solution of CNP derivative (A) in Group 3, human-type CNP-53 in Group 4, CNP derivative (B) in Group 5 and CNP derivative (C) in Group 6 was embedded in the hypoderm of the back simultaneously. No substance was administered to the normal control group (Group 1, 5 animals). Then the animals were fed for 28 days, and transitions of the body weight, the body length and the tail length were measured. On the final day, the blood was collected from the abdominal aorta and the animals were caused to die under isoflurane anesthesia, and plasma was separated from the collected blood and the cholesterol concentration was determined by using a “LabAssay (trademark) cholesterol” (available from Wako Pure Chemical Industries, Ltd.). After collecting the blood and causing the animals to die, the right femur and thymus were extracted, and the length of the right femur and the weight of the thymus were measured.

[2] = test system: rat growth failure induced by dexamethasone; test: Action comparing study between CNP derivative (A) and human growth hormone on rat growth failure induced by dexamethasone (Example 6)
Description: Osmotic pumps (MINI-OSMOTIC PUMP Model 2004, available from DURECT CORPORATION, flow rate: 0.25 μL/hr, for 28 days) were charged with a 0.67 mg/mL solution of dexamethasone (dexamethasone injection “KS”, available from Kyoritsuseiyaku Corporation), and one osmotic pump was embedded in the hypoderm of the back of each 4-week-old male Crlj:WI (Wistar) rat (5 animals/group, Group 2 to Group 4, total of 15 animals). For Group 3, a 1 mg/mL solution of CNP derivative (A) (medium: 0.03 mol/L acetate buffer (pH 4.0)/1% benzyl alcohol/10% sucrose), and for Group 4, a 1 mg/mL solution of human-type growth hormone preparation (somatropin BS subcutaneous injection 10 mg “SANDOZ”) diluted with a phosphate buffer was administered to the hypoderm of the back of five rats, respectively, in a volume of 2 mL/kg once a day for 28 days. No substance was administered to the normal control group (5 animals, Group 1). On the final day, after measuring the body weight, the body length and the tail length, the blood was collected from the abdominal aorta and the animal was caused to die under isoflurane anesthesia, the left femur was extracted and the bone length was measured, and then a histopathological specimen of the epiphyseal region was prepared.

[3] = test system: steroid-induced growth failure, male Crlj:WI (Wistar) rat; test: Simultaneous combined administration test of various steroids and CNP derivative (A) in rats (Example 5); settings: for Body length at dissection / Body length, variation from preadministration value (Δ value) / Body weight, variation from preadministration value (Δ value) / Right femur length at dissection / Tail length at dissection / Tail length, variation from preadministration value (Δ value) / Body weight at dissection: 1 mL/kg s.c. once a day 28 days, + medium or + CNP derivative (A) 1 mg/kg, n=5; for Body weight at dissection: 4-week-old male Wistar rat
Description: 0.3 mg/mL solution of dexamethasone (dexamethasone injection “KS”, available from Kyoritsuseiyaku Corporation diluted with saline), prednisolone succinate suspended in 0.1% polysorbate-containing brine (available from Wako Pure Chemical Industries, Ltd., concentration of 5 mg/mL as prednisolone), or betamethasone dipropionate suspended in 0.1% polysorbate-containing brine (available from Wako Pure Chemical Industries, Ltd., concentration of 0.3 mg/mL as betamethasone) was administered to the hypoderm of the back of a 4-week-old male Crlj:WI (Wistar) rat (ten animals for each set of substances) in a volume of 1 mL/kg once a day for 28 days. No substance was administered to the control group (5 animals, Group 1). At the same time, for five of ten animals in each set (Group 2, Group 4, Group 6) a medium (0.03 mol/L acetate buffer (pH 4.0)/1% benzyl alcohol/10% sucrose) and for the remaining five animals (Group 3, Group 5, Group 7) the medium and a 1 mg/mL solution of CNP derivative (A) were administered in combination in the hypoderm of the back in a volume of 1 mL/kg once a day for 28 days. After measuring the body weight, the body length and the tail length under isoflurane anesthesia on the day after the final day of administration, blood was collected from the abdominal aorta and the animal was caused to die, the right femur was extracted and the femur length was measured.

[4] = combined with dexamethasone, 28 days
[5] = dexamethasone 0.67 mg/mL pump alone or with CNP derivative (A) or human-type growth hormone 1 mg/mL, 2 mL/kg s.c. once a day 28 days, n=4 or 5

CC[C@H](C)[C@@H]1NC(=O)[C@H](CCCNC(=N)N)NC(=O)[C@H](CC(=O)O)NC(=O)[C@H](CC(C)C)NC(=O)[C@H](CCCCN)NC(=O)[C@H](CC(C)C)NC(=O)CNC(=O)[C@H](Cc2ccccc2)NC(=O)[C@@H](NC(=O)CNC(=O)[C@H](CCCCN)NC(=O)[C@H](CO)NC(=O)[C@H](CC(C)C)NC(=O)CNC(=O)[C@H](CCCCN)NC(=O)[C@H](CCCCN)NC(=O)[C@H](CC(N)=O)NC(=O)[C@H](C)NC(=O)CNC(=O)[C@H](CCCCN)NC(=O)[C@H](Cc2ccc(O)cc2)NC(=O)[C@H](CCCCN)NC(=O)[C@H](CCCNC(=N)N)NC(=O)[C@H](C)NC(=O)[C@H](CC(N)=O)NC(=O)[C@@H]2CCCN2C(=O)[C@H](Cc2c[nH]cn2)NC(=O)[C@H](CCC(=O)O)NC(=O)[C@H](CCC(N)=O)NC(=O)CNC(=O)[C@@H]2CCCN2)CSSC[C@@H](C(=O)O)NC(=O)CNC(=O)[C@H](CC(C)C)NC(=O)CNC(=O)[C@H](CO)NC(=O)[C@H](CCSC)NC(=O)[C@H](CO)NC(=O)CNC1=O [CNP derivative (B), Pro-Gly-CNP-37]
plasma cholesterol concentration and thymus weight vs single administration group of dexamethasone (in words) [1]: a clear difference was not observed | Plasma cholesterol concentration [1]: 64.4 ± 0.8 ^NS mg/dL | thymus body weight ratio [1]: [0.14 ± 0.04%*] | thymus weight at dissection [1]: 0.42 ± 0.14 g

CC[C@H](C)[C@@H]1NC(=O)[C@H](CCCNC(=N)N)NC(=O)[C@H](CC(=O)O)NC(=O)[C@H](CC(C)C)NC(=O)[C@H](CCCCN)NC(=O)[C@H](CC(C)C)NC(=O)CNC(=O)[C@H](Cc2ccccc2)NC(=O)[C@@H](NC(=O)CNC(=O)[C@H](CCCCN)NC(=O)[C@H](CO)NC(=O)[C@H](CC(C)C)NC(=O)CN)CSSC[C@@H](C(=O)N[C@H](C(=O)N[C@@H](CCC(N)=O)C(=O)N[C@@H](CCC(N)=O)C(=O)N[C@@H](CCCNC(=N)N)C(=O)N[C@@H](CCCCN)C(=O)N[C@@H](CCC(=O)O)C(=O)N[C@@H](CO)C(=O)N[C@@H](CCCCN)C(=O)N[C@@H](CCCCN)C(=O)N2CCC[C@H]2C(=O)N2CCC[C@H]2C(=O)N[C@@H](C)C(=O)N[C@@H](CCCCN)C(=O)N[C@@H](CC(C)C)C(=O)N[C@@H](CCC(N)=O)C(=O)N2CCC[C@H]2C(=O)N[C@@H](CCCNC(=N)N)C(=O)O)C(C)C)NC(=O)CNC(=O)[C@H](CC(C)C)NC(=O)CNC(=O)[C@H](CO)NC(=O)[C@H](CCSC)NC(=O)[C@H](CO)NC(=O)CNC1=O [CNP derivative (C), CNP (1-22) Ghrelin (12-28, SEQ ID NO: 8)] (H-GLSKGCFGLKLDRIGSMSGLGCVQQRKESKKPPAKLQPR-OH; disulfide 6-22)
plasma cholesterol concentration and thymus weight vs single administration group of dexamethasone (in words) [1]: a clear difference was not observed | Plasma cholesterol concentration [1]: 59.2 ± 7.4 ^NS mg/dL | thymus body weight ratio [1]: [0.11 ± 0.02% ^NS] | thymus weight at dissection [1]: 0.35 ± 0.06 g

human-type growth hormone: human-type growth hormone preparation, existing therapeutic drug for dwarfism
elongation of the body length and the tail length vs dexamethasone-only administration group (in words) [2, 4]: no significant difference | left femur length on the final day vs dexamethasone-only administration group (in words) [2, 4]: No significant difference | Body weight at dissection ([2]; dexamethasone 0.67 mg/mL pump 28 days alone or with CNP derivative (A) or human-type growth hormone 1 mg/mL, 2 mL/kg s.c. once a day 28 days, 4-week-old male Wistar rat, mean ± SD, n=4 or 5): 255 ± 7 g | Body length at dissection [2, 5]: 199 ± 5 mm | Body length, variation from pre-administration value (Δ value) [2, 5]: (44.8 ± 3.7) mm | Body weight, variation from pre-administration value (Δ value) [2, 5]: (149 ± 3) g | Left femur length at dissection [2, 5]: 31.7 ± 0.6 mm | Tail length at dissection [2, 5]: 199 ± 3 mm | Tail length, variation from pre-administration value (Δ value) [2, 5]: (66.8 ± 5.0) mm | growth plate cartilage layer of the epiphyseal region of the left femur (in words) ([2]; histology, toluidine blue (FIG. 5), tendency, combinations compared with dexamethasone only): swelling

DLRVDTKSRAAWARLLQEHPNARKYKGANKKGLSKGCFGLKLDRIGSMSGLGC (disulfide 37-53) [human-type CNP-53]
plasma cholesterol concentration and thymus weight vs single administration group of dexamethasone (in words) [1]: a clear difference was not observed | Plasma cholesterol concentration [1]: 62.1 ± 2.2 ^NS mg/dL | thymus body weight ratio [1]: [0.11 ± 0.01% ^NS] | thymus weight at dissection [1]: 0.33 ± 0.03 g

CCC(=O)OCC(=O)[C@@]1(OC(=O)CC)[C@@H](C)C[C@H]2[C@@H]3CCC4=CC(=O)C=C[C@]4(C)[C@@]3(F)[C@@H](O)C[C@@]21C [Betamethasone, betamethasone dipropionate]
Body length at dissection ([3]; betamethasone 0.3 mg/mL): 211 ± 2 mm | Body length, variation from preadministration value (Δ value) ([3]; betamethasone 0.3 mg/mL): (59 ± 5) mm | Body weight, variation from preadministration value (Δ value) ([3]; betamethasone 0.3 mg/mL): (208 ± 10) g | Right femur length at dissection ([3]; betamethasone 0.3 mg/mL): 33.9 ± 0.5 mm | Tail length at dissection ([3]; betamethasone 0.3 mg/mL): 213 ± 4 mm | Tail length, variation from preadministration value (Δ value) ([3]; betamethasone 0.3 mg/mL): (82 ± 3) mm | Body weight at dissection ([3]; betamethasone dipropionate (0.3 mg/mL as betamethasone)): 315 ± 11 g | growth failure in rats by repeated administration of the steroid for 28 days (in words) ([3]; rat, in vivo, sc): induce growth failure

C[C@]12C=CC(=O)C=C1CC[C@@H]1[C@@H]2[C@@H](O)C[C@@]2(C)[C@H]1CC[C@]2(O)C(=O)COC(=O)CCC(=O)O [prednisolone succinate]
Body length at dissection ([3]; prednisolone 5 mg/mL): 209 ± 4 mm | Body length, variation from preadministration value (Δ value) ([3]; prednisolone 5 mg/mL): (58 ± 4) mm | Body weight, variation from preadministration value (Δ value) ([3]; prednisolone 5 mg/mL): (191 ± 14) g | Right femur length at dissection ([3]; prednisolone 5 mg/mL): 33.3 ± 0.3 mm | Tail length at dissection ([3]; prednisolone 5 mg/mL): 206 ± 6 mm | Tail length, variation from preadministration value (Δ value) ([3]; prednisolone 5 mg/mL): (79 ± 9) mm | Body weight at dissection ([3]; prednisolone succinate (5 mg/mL as prednisolone)): 298 ± 14 g | growth failure in rats by repeated administration of the steroid for 28 days (in words) ([3]; s.c. once a day 28 days, body weight gain, body, tail and femur length, p<0.05 or 0.01): induce growth failure
